Reference: patent publication US20230355626A1, “INHIBITORS OF HUMAN IMMUNODEFICIENCY VIRUS REPLICATION” (VIIV HEALTHCARE UK (NO.5) LIMITED, priority 2020, published 2023)
pEC50: −log10 of the molar value.

What was measured:
[1] = Compound cytotoxicity, XTT-based colorimetric assay; format: cell-based; details: human; uninfected MT2 cells, day 4, XTT assay
Method in brief: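 CC50 derived from XTT colorimetric signal measured on day 4 in MT2 cells that were not infected. All other steps followed the antiviral assay protocol.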

recombinant NL4-3 virus = assay: HIV cell culture assay (antiviral activity, luciferase readout in infected MT-2 cells); format: cell-based; details: Human immunodeficiency virus 1, NL43, MT2
Method in brief: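 MT-2 cells infected for 4-5 days with 293T-derived NL4-3 reporter virus (nef partly replaced by Renilla luciferase) in serial compound dilutions. Live-cell luciferase read-out. EC50 from median effect equation fit.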

| SMILES | CC50 at 4 day [1] | pEC50 (recombinant NL4-3 virus) |
| --- | --- | --- |
| Cn1nc(NS(C)(=O)=O)c2c(Cl)ccc(-n3c([C@H](Cc4cc(F)cc(F)c4)NC(=O)Cn4nc(C(F)F)c5c4C(F)(F)[C@@H]4C[C@H]54)nc4nc(Oc5ccccc5F)ccc4c3=O)c21 (atropisomer, axis not shown; (P)) [Example 37, N-((S)-1-((3P)-3-(4-chloro-1-methyl-3-(methylsulfonamido)-1H-indazol-7-yl)-7-(2-fluorophenoxy)-4-oxo-3,4-dihydropyrido[2,3-d]pyrimidin-2-yl)-2-(3,5-difluorophenyl)ethyl)-2-((3bS,4aR)-3-(difluoromethyl)-5,5-difluoro-3b,4,4a,5-tetrahydro-1H-cyclopropa[3,4]cyclopenta[1,2-c]pyrazol-1-yl)acetamide] | > 100 nM | 10.09 |
| Cn1nc(NS(C)(=O)=O)c2c(Cl)ccc(-n3c([C@H](Cc4cc(F)cc(F)c4)NC(=O)Cn4nc(C(F)F)c5c4C(F)(F)[C@@H]4C[C@H]54)nc4nc(OCc5ccncc5)ccc4c3=O)c21 (atropisomer, axis not shown; (P)) [Example 2, N-((S)-1-((3P,3P)-3-(4-chloro-1-methyl-3-(methylsulfonamido)-1H-indazol-7-yl)-4-oxo-7-(pyridin-4-ylmethoxy)-3,4-dihydropyrido[2,3-d]pyrimidin-2-yl)-2-(3,5-difluorophenyl)ethyl)-2-((3bS,4aR)-3-(difluoromethyl)-5,5-difluoro-3b,4,4a,5-tetrahydro-1H-cyclopropa[3,4]cyclopenta[1,2-c]pyrazol-1-yl)acetamide] | > 100 nM | 10.22 |
| CN(CCOc1ccc2c(=O)n(-c3ccc(Cl)c4c(NS(C)(=O)=O)nn(C)c34)c([C@H](Cc3cc(F)cc(F)c3)NC(=O)Cn3nc(C(F)F)c4c3C(F)(F)[C@@H]3C[C@H]43)nc2n1)CC(F)(F)F (atropisomer, axis not shown; (P)) [Example 9, N-((S)-1-((3P)-3-(4-chloro-1-methyl-3-(methylsulfonamido)-1H-indazol-7-yl)-7-(2-(methyl(2,2,2-trifluoroethyl)amino)ethoxy)-4-oxo-3,4-dihydropyrido[2,3-d]pyrimidin-2-yl)-2-(3,5-difluorophenyl)ethyl)-2-((3bS,4aR)-3-(difluoromethyl)-5,5-difluoro-3b,4,4a,5-tetrahydro-1H-cyclopropa[3,4]cyclopenta[1,2-c]pyrazol-1-yl)acetamide] | > 100 nM | 10.74 |
| CN(CCCOc1ccc2c(=O)n(-c3ccc(Cl)c4c(NS(C)(=O)=O)nn(C)c34)c([C@H](Cc3cc(F)cc(F)c3)NC(=O)Cn3nc(C(F)F)c4c3C(F)(F)[C@@H]3C[C@H]43)nc2n1)CC(F)(F)F (atropisomer, axis not shown; (P)) [Example 11, N-((S)-1-((3P)-3-(4-chloro-1-methyl-3-(methylsulfonamido)-1H-indazol-7-yl)-7-(3-(methyl(2,2,2-trifluoroethyl)amino)propoxy)-4-oxo-3,4-dihydropyrido[2,3-d]pyrimidin-2-yl)-2-(3,5-difluorophenyl)ethyl)-2-((3bS,4aR)-3-(difluoromethyl)-5,5-difluoro-3b,4,4a,5-tetrahydro-1H-cyclopropa[3,4]cyclopenta[1,2-c]pyrazol-1-yl)acetamide] | > 100 nM | 10.57 |
| Cn1nc(NS(C)(=O)=O)c2c(Cl)ccc(-n3c([C@H](Cc4cc(F)cc(F)c4)NC(=O)Cn4nc(C(F)F)c5c4C(F)(F)[C@@H]4C[C@H]54)nc4nc(OC5CCC(F)(F)CC5)ccc4c3=O)c21 (atropisomer, axis not shown; (P)) [Example 35, N-((S)-1-((3P)-3-(4-chloro-1-methyl-3-(methylsulfonamido)-1H-indazol-7-yl)-7-((4,4-difluorocyclohexyl)oxy)-4-oxo-3,4-dihydropyrido[2,3-d]pyrimidin-2-yl)-2-(3,5-difluorophenyl)ethyl)-2-((3bS,4aR)-3-(difluoromethyl)-5,5-difluoro-3b,4,4a,5-tetrahydro-1H-cyclopropa[3,4]cyclopenta[1,2-c]pyrazol-1-yl)acetamide] | > 100 nM | 10.27 |
| Cn1nc(NS(C)(=O)=O)c2c(Cl)ccc(-n3c([C@H](Cc4cc(F)cc(F)c4)NC(=O)Cn4nc(C(F)F)c5c4C(F)(F)[C@@H]4C[C@H]54)nc4nc(OCCNCC(F)(F)F)ccc4c3=O)c21 (atropisomer, axis not shown; (P)) [Example 25, N-((S)-1-((3P)-3-(4-chloro-1-methyl-3-(methylsulfonamido)-1H-indazol-7-yl)-4-oxo-7-(2-((2,2,2-trifluoroethyl)amino)ethoxy)-3,4-dihydropyrido[2,3-d]pyrimidin-2-yl)-2-(3,5-difluorophenyl)ethyl)-2-((3bS,4aR)-3-(difluoromethyl)-5,5-difluoro-3b,4,4a,5-tetrahydro-1H-cyclopropa[3,4]cyclopenta[1,2-c]pyrazol-1-yl)acetamide] | > 100 nM | 10.24 |
| Cn1nc(NS(C)(=O)=O)c2c(Cl)ccc(-n3c([C@H](Cc4cc(F)cc(F)c4)NC(=O)Cn4nc(C(F)F)c5c4C(F)(F)[C@@H]4C[C@H]54)nc4nc(OCC5CC(F)(F)C5)ccc4c3=O)c21 (atropisomer, axis not shown; (P)) [Example 31, N-((S)-1-((3P)-3-(4-chloro-1-methyl-3-(methylsulfonamido)-1H-indazol-7-yl)-7-((3,3-difluorocyclobutyl)methoxy)-4-oxo-3,4-dihydropyrido[2,3-d]pyrimidin-2-yl)-2-(3,5-difluorophenyl)ethyl)-2-((3bS,4aR)-3-(difluoromethyl)-5,5-difluoro-3b,4,4a,5-tetrahydro-1H-cyclopropa[3,4]cyclopenta[1,2-c]pyrazol-1-yl)acetamide] | > 100 nM | 10.46 |
| Cn1nc(NS(C)(=O)=O)c2c(Cl)ccc(-n3c([C@H](Cc4cc(F)cc(F)c4)NC(=O)Cn4nc(C(F)F)c5c4C(F)(F)[C@@H]4C[C@H]54)nc4nc(Oc5ccc(F)cc5F)ccc4c3=O)c21 (atropisomer, axis not shown; (P)) [Example 36, N-((S)-1-((3P)-3-(4-chloro-1-methyl-3-(methylsulfonamido)-1H-indazol-7-yl)-7-(2,4-difluorophenoxy)-4-oxo-3,4-dihydropyrido[2,3-d]pyrimidin-2-yl)-2-(3,5-difluorophenyl)ethyl)-2-((3bS,4aR)-3-(difluoromethyl)-5,5-difluoro-3b,4,4a,5-tetrahydro-1H-cyclopropa[3,4]cyclopenta[1,2-c]pyrazol-1-yl)acetamide] | > 100 nM | 10.09 |
| Cn1nc(NS(C)(=O)=O)c2c(Cl)ccc(-n3c([C@H](Cc4cc(F)cc(F)c4)NC(=O)Cn4nc(C(F)F)c5c4C(F)(F)[C@@H]4C[C@H]54)nc4nc(OCCC(C)(C)c5ccccc5)ccc4c3=O)c21 (atropisomer, axis not shown; (P)) [Example 5, N-((S)-1-((3P)-3-(4-chloro-1-methyl-3-(methylsulfonamido)-1H-indazol-7-yl)-7-(3-methyl-3-phenylbutoxy)-4-oxo-3,4-dihydropyrido[2,3-d]pyrimidin-2-yl)-2-(3,5-difluorophenyl)ethyl)-2-((3bS,4aR)-3-(difluoromethyl)-5,5-difluoro-3b,4,4a,5-tetrahydro-1H-cyclopropa[3,4]cyclopenta[1,2-c]pyrazol-1-yl)acetamide] | > 100 nM | 9.37 |
